Measurements reported in ChEMBL document CHEMBL3352542, “Synthesis, biological evaluation and molecular modeling study of 2-(1,3,4-thiadiazolyl-thio and 4-methyl-thiazolyl-thio)-quinazolin-4-ones as a new class of DHFR inhibitors” (Bioorg Med Chem Lett, 2014).
The source made the active and inactive calls. The calls are words filed in the database; no cut-off is given here.

Columns and labels:
[1] = system: KM12; experiment: Growth inhibition of human KM12 cells at 10 uM after 48 hrs; type: functional; conditions: KM12, 48 h, read-out: GI
[2] = system: T47D; experiment: Growth inhibition of human T47D cells at 10 uM after 48 hrs; type: functional; conditions: read-out: GI
[3] = Growth inhibition of human HOP92 cells at 10 uM after 48 hrs; type: functional; conditions: HOP-92, 48 h, read-out: GI
[4] = system: U-251; experiment: Growth inhibition of human U251 cells at 10 uM after 48 hrs; type: functional; conditions: U-251, 48 h, read-out: GI
[5] = Growth inhibition of human UACC257 cells at 10 uM after 48 hrs; type: functional; conditions: UACC-257, 48 h, read-out: GI
[6] = Growth inhibition of human UACC62 cells at 10 uM after 48 hrs; type: functional; conditions: UACC-62, 48 h, read-out: GI
[7] = system: CAKI-1; experiment: Growth inhibition of human CAKI-1 cells at 10 uM after 48 hrs; type: functional; conditions: CAKI-1, 48 h, read-out: GI
[8] = Growth inhibition of human PC3 cells at 10 uM after 48 hrs; type: functional; conditions: PC-3, 48 h, read-out: GI
[9] = system: Pseudomonas aeruginosa; experiment: Antimicrobial activity against Pseudomonas aeruginosa assessed as inhibition zone at 200 ug/disk after 24 hrs by disc-diffusion method; type: functional; conditions: read-out: IZ
[10] = system: A549; experiment: Growth inhibition of human A549 cells at 10 uM after 48 hrs; type: functional; conditions: A549, 48 h, read-out: GI
[11] = system: K562; experiment: Growth inhibition of human K562 cells at 10 uM after 48 hrs; type: functional; conditions: K562, 48 h, read-out: GI
[12] = system: M14; experiment: Growth inhibition of human M14 cells at 10 uM after 48 hrs; type: functional; conditions: M14, 48 h, read-out: GI
[13] = Growth inhibition of human OVCAR4 cells at 10 uM after 48 hrs; type: functional; conditions: OVCAR-4, 48 h, read-out: GI
[14] = Growth inhibition of human HCT15 cells at 10 uM after 48 hrs; type: functional; conditions: HCT-15, 48 h, read-out: GI
[15] = system: SR; experiment: Growth inhibition of human SR cells at 10 uM after 48 hrs; type: functional; conditions: read-out: GI
[16] = system: SK-MEL-5; experiment: Growth inhibition of human SK-MEL-5 cells at 10 uM after 48 hrs; type: functional; conditions: SK-MEL-5, 48 h, read-out: GI
[17] = system: MDA-MB-231; experiment: Growth inhibition of human MDA-MB-231 cells at 10 uM after 48 hrs; type: functional; conditions: MDA-MB-231, 48 h, read-out: GI
[18] = molecular target: T1, Dihydrofolate reductase (Bos taurus, UniProt P00376); experiment: Inhibition of bovine liver DHFR
T1 sequence (P00376 whole entry): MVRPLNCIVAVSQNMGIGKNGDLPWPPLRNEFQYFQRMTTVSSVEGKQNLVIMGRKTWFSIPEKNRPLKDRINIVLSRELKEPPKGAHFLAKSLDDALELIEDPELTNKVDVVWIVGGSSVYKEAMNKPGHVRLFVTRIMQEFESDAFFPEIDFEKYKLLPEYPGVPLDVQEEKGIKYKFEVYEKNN

[19] = Growth inhibition of human UO31 cells at 10 uM after 48 hrs; type: functional; conditions: UO-31, 48 h, read-out: GI
[20] = system: A498; experiment: Growth inhibition of human A498 cells at 10 uM after 48 hrs; type: functional; conditions: A498, 48 h, read-out: GI
[21] = system: SF-268; experiment: Growth inhibition of human SF268 cells at 10 uM after 48 hrs; type: functional; conditions: SF-268, 48 h, read-out: GI
[22] = system: MCF7; experiment: Growth inhibition of human MCF7 cells at 10 uM after 48 hrs; type: functional; conditions: MCF7, 48 h, read-out: GI
[23] = system: NCI-H226; experiment: Growth inhibition of human NCI-H226 cells at 10 uM after 48 hrs; type: functional; conditions: NCI-H226, 48 h, read-out: GI
[24] = Growth inhibition of human LOXIMVI cells at 10 uM after 48 hrs; type: functional; conditions: LOX IMVI, read-out: GI
[25] = system: SNB-75; experiment: Growth inhibition of human SNB75 cells at 10 uM after 48 hrs; type: functional; conditions: SNB-75, 48 h, read-out: GI
[26] = system: Bacillus subtilis; experiment: Antimicrobial activity against Bacillus subtilis assessed as inhibition zone at 200 ug/disk after 24 hrs by disc-diffusion method; type: functional; conditions: read-out: IZ
[27] = system: Bacillus subtilis; experiment: Antimicrobial activity against Bacillus subtilis assessed as inhibition of visible growth after 24 hrs by disc-diffusion method; type: functional, organism-based
[28] = system: CCRF-CEM; experiment: Growth inhibition of human CCRF-CEM cells at 10 uM after 48 hrs; type: functional; conditions: read-out: GI
[29] = Growth inhibition of human RPMI8226 cells at 10 uM after 48 hrs; type: functional; conditions: RPMI-8226, 48 h, read-out: GI
[30] = Growth inhibition of human Hs 578T cells at 10 uM after 48 hrs; type: functional; conditions: read-out: GI
[31] = system: Staphylococcus aureus; experiment: Antimicrobial activity against Staphylococcus aureus assessed as inhibition zone at 200 ug/disk after 24 hrs by disc-diffusion method; type: functional; conditions: read-out: IZ
[32] = Growth inhibition of human HCT116 cells at 10 uM after 48 hrs; type: functional; conditions: HCT-116, 48 h, read-out: GI
[33] = Growth inhibition of human OVCAR8 cells at 10 uM after 48 hrs; type: functional; conditions: OVCAR-8, 48 h, read-out: GI
[34] = system: Escherichia coli; experiment: Antimicrobial activity against Escherichia coli assessed as inhibition zone at 200 ug/disk after 24 hrs by disc-diffusion method; type: functional; conditions: read-out: IZ
[35] = system: NCI-H23; experiment: Growth inhibition of human NCI-H23 cells at 10 uM after 48 hrs; type: functional; conditions: NCI-H23, 48 h, read-out: GI
[36] = Growth inhibition of human OVCAR3 cells at 10 uM after 48 hrs; type: functional; conditions: OVCAR-3, 48 h, read-out: GI
[37] = system: MDA-MB-468; experiment: Growth inhibition of human MDA-MB-468 cells at 10 uM after 48 hrs; type: functional; conditions: MDA-MB-468, 48 h, read-out: GI
[38] = Growth inhibition of human NCI-ADR-RES cells at 10 uM after 48 hrs; type: functional; conditions: read-out: GI
[39] = Growth inhibition of human SF295 cells at 10 uM after 48 hrs; type: functional; conditions: SF-295, 48 h, read-out: GI
[40] = Growth inhibition of human SF539 cells at 10 uM after 48 hrs; type: functional; conditions: SF-539, 48 h, read-out: GI
[41] = system: ACHN; experiment: Growth inhibition of human ACHN cells at 10 uM after 48 hrs; type: functional; conditions: read-out: GI
[42] = system: Candida albicans; experiment: Antimicrobial activity against Candida albicans assessed as inhibition zone at 200 ug/disk after 24 hrs by disc-diffusion method; type: functional; conditions: read-out: IZ
[43] = Growth inhibition of human RXF393 cells at 10 uM after 48 hrs; type: functional; conditions: RXF 393, 48 h, read-out: GI
[44] = system: Staphylococcus aureus; experiment: Antimicrobial activity against Staphylococcus aureus assessed as inhibition of visible growth after 24 hrs by disc-diffusion method; type: functional, organism-based
[45] = Growth inhibition of human MOLT4 cells at 10 uM after 48 hrs; type: functional; conditions: MOLT-4, 48 h, read-out: GI

Cc1ccc2nc(Sc3sc(N)nc3C)n(Cc3ccccc3)c(=O)c2c1
inhibition of growth at 10 µM [1]: 18.8%
inhibition of growth at 10 µM [2]: 23.9%
inhibition of growth at 10 µM [3]: 50.2%
inhibition of growth at 10 µM [4]: 12.2%
inhibition of growth at 10 µM [5]: 11.6%
inhibition of growth at 10 µM [6]: 22.8%
inhibition of growth at 10 µM [7]: 13.7%
inhibition of growth at 10 µM [8]: 34.5%
zone of inhibition at 200 µg/disc [9]: 8 mm
inhibition of growth at 10 µM [10]: 22.1%
inhibition of growth at 10 µM [11]: 17.4%
inhibition of growth at 10 µM [12]: 10.3%
inhibition of growth at 10 µM [13]: 18.7%
inhibition of growth at 10 µM [14]: 13.5%
inhibition of growth at 10 µM [15]: 19%
inhibition of growth at 10 µM [16]: 25.8%
inhibition of growth at 10 µM [17]: 14.2%
IC50 [18]: 5 µM
inhibition of growth at 10 µM [19]: 35.5%
inhibition of growth at 10 µM [20]: 21.9%
inhibition of growth at 10 µM [21]: 10.8%
inhibition of growth at 10 µM [22]: 10.7%
inhibition of growth at 10 µM [23]: 22.7%
inhibition of growth at 10 µM [24]: 19.5%
inhibition of growth at 10 µM [25]: 22.7%
zone of inhibition at 200 µg/disc [26]: 21 mm
Activity [27]: Active
inhibition of growth at 10 µM [28]: 14.9%
inhibition of growth at 10 µM [29]: 28.1%
inhibition of growth at 10 µM [30]: 19.4%
zone of inhibition at 200 µg/disc [31]: 18 mm
inhibition of growth at 10 µM [32]: 20.7%
inhibition of growth at 10 µM [33]: 16%
zone of inhibition at 200 µg/disc [34]: 8 mm
inhibition of growth at 10 µM [35]: 19.2%
inhibition of growth at 10 µM [36]: 19.2%
inhibition of growth at 10 µM [37]: 30.1%
inhibition of growth at 10 µM [38]: 20.3%
inhibition of growth at 10 µM [39]: 21.9%
inhibition of growth at 10 µM [40]: 15.1%
inhibition of growth at 10 µM [41]: 19.8%
zone of inhibition at 200 µg/disc [42]: 12 mm
inhibition of growth at 10 µM [43]: 17.8%
Activity [44]: Active
inhibition of growth at 10 µM [45]: 34.2%
